According to patent US20050074879A1, “Antisense oligonucleotide modulation of STAT3 expression” (priority 2000, published 2005):
Oligonucleotides are written 5' to 3', each unit as a sugar letter and its base; * is a phosphorothioate linkage, no mark a phosphodiester; rarer units and linkages stand in square brackets, end groups in braces. Plain capitals give the bases only. e = 2'-O-(2-methoxyethyl) (MOE); [5mC] = 5-methylcytosine; d = 2'-deoxy (DNA)

Test system: Human STAT3 mRNA
Test: Inhibition of human STAT3 mRNA levels in A549 cells, 75 nM, real-time PCR (Table 13)
Assay type: cell-based
Conditions: 75 nM oligonucleotide with LIPOFECTIN, real-time PCR PPS 199, percent inhibition relative to untreated control cells, average of 2 experiments
Description: Oligonucleotide activity is assayed by quantitation of STAT3 mRNA levels by real-time PCR (RT-PCR) using the ABI PRISMS 7700 Sequence Detection System (PE-Applied Biosystems, Foster City, Calif.) according to manufacturer's instructions. This is a closed-tube, non-gel-based, fluorescence detection system which allows high-throughput quantitation of polymerase chain reaction (PCR) products in real-time. As opposed to standard PCR, in which amplification products are quantitated after the PCR is completed, products in RT-PCR are quantitated as they accumulate. This is accomplished by including in the PCR reaction an oligonucleotide probe that anneals specifically between the forward and reverse PCR primers, and contains two fluorescent dyes. A reporter dye (e.g., JOE or FAM, PE-Applied Biosystems, Foster City, Calif.) is attached to the 5′ end of the probe and a quencher dye (e.g., TAMRA, PE-Applied Biosystems, Foster City, Calif.) is attached to the 3′ end of the probe. When the probe and dyes are intact, reporter dye emission is quenched by the proximity of the 3′ quencher dye. During amplification, annealing of the probe to the target sequence creates a substrate that can be cleaved by the 5′-exonuclease activity of Taq polymerase. […] With each cycle, additional reporter dye molecules are cleaved from their respective probes, and the fluorescence intensity is monitored at regular (six-second) intervals by laser optics built into the ABI PRISM™ 7700 Sequence Detection System. In each assay, a series of parallel reactions containing serial dilutions of mRNA from untreated control samples generates a standard curve that is used to quantitate the percent inhibition after antisense oligonucleotide treatment of test samples.
RT-PCR reagents are obtained from PE-Applied Biosystems, Foster City, Calif. RT-PCR reactions are carried out by adding 25 l PCR cocktail (1× TAQMAN7 buffer A, 5.5 mM MgCl2, 300 µM each of DATP, dCTP and dGTP, 600 µM of dUTP, 100 nM each of forward primer, reverse primer, and probe, 20 U RNAse inhibitor, 1.25 units AMPLITAQ GOLD7, and 12.5 U MuLV reverse transcriptase) to 96 well plates containing 25 l poly(A) mRNA solution. The RT reaction is carried out by incubation for 30 minutes at 48° C. following a 10 minute incubation at 95° C. to activate the AMPLITAQ GOLD7, 40 cycles of a two-step PCR protocol are carried out: 95° C. for 15 seconds (denaturation) followed by 60° C. for 1.5 minutes (annealing/extension).
The compounds were analyzed for their effect on STAT3 mRNA levels in A549 cells. The human lung carcinoma cell line A549 was obtained from the American Type Culture Collection (ATCC) (Manassas, Va.). A549 cells were routinely cultured in DMEM basal media (Invitrogen Corporation, Carlsbad, Calif.) supplemented with 10% fetal calf serum (Invitrogen Corporation, Carlsbad, Calif.), 100 units/mL penicillin, and 100 ug/mL streptomycin (Invitrogen Corporation, Carlsbad, Calif.). Cells were routinely passaged by trypsinization and dilution when they reached 90% confluence.
When cells reached 65-75% confluency, they were treated with oligonucleotide. For cells grown in 96-well plates, wells were washed once with […] OPTI-MEM-1 reduced-serum medium (Invitrogen Corporation, Carlsbad, Calif.) and then treated with 130 µL of OPTI-MEM-1 containing […] LIPOFECTIN (Invitrogen Corporation, Carlsbad, Calif.) and 75 nM of the compounds in Table 13. Cells were treated and data were obtained in duplicate. Untreated cells served as controls. After 4-7 hours of treatment at 37° C., the medium was replaced with fresh medium. Cells were harvested 16-24 hours after oligonucleotide treatment. STAT3 mRNA levels in A549 cells were quantitated by real-time PCR as described by other methods herein.
Probes and primers to human STAT3 were designed to hybridize to a human STAT3 sequence, using published sequence information (incorporated herein as SEQ ID NO: 1). For STAT 3 the PCR primers were: • forward primer: […]

337298 (antisense eA*eG*eT*eT*eG*dA*dG*dA*dT*dT*d[5mC]*dT*dG*d[5mC]*dT*eA*eA*eT*eG*eA) [compound 337298]
% Inhib (inhibition of human STAT 3 mRNA levels): 74%

337299 (antisense eT*e[5mC]*eT*eG*eA*dA*dG*dT*dT*dG*dA*dG*dA*dT*dT*e[5mC]*eT*eG*e[5mC]*eT) [compound 337299]
% Inhib (inhibition of human STAT 3 mRNA levels): 80%

337300 (antisense e[5mC]*e[5mC]*eT*eT*eT*dG*dT*dA*dG*dG*dA*dA*dA*d[5mC]*dT*eT*eT*eT*eT*eG) [compound 337300]
% Inhib (inhibition of human STAT 3 mRNA levels): 23%

337301 (antisense eA*eG*eG*e[5mC]*eA*d[5mC]*dT*dT*dT*dT*d[5mC]*dA*dT*dT*dA*eA*eG*eT*eT*eT) [compound 337301]
% Inhib (inhibition of human STAT 3 mRNA levels): 73%

337302 (antisense eT*eT*eG*eA*e[5mC]*d[5mC]*dA*dG*d[5mC]*dA*dA*d[5mC]*d[5mC]*dT*dG*eA*e[5mC]*eT*eT*eT) [compound 337302]
% Inhib (inhibition of human STAT 3 mRNA levels): 61%

337304 (antisense eT*eT*eT*eT*eA*dA*dG*d[5mC]*dT*dG*dA*dT*dA*dA*dT*eT*e[5mC]*eA*eA*e[5mC]) [compound 337304]
% Inhib (inhibition of human STAT 3 mRNA levels): 15%

337305 (antisense e[5mC]*eT*eT*eT*eA*dA*dT*dT*dT*dT*dA*dA*dG*d[5mC]*dT*eG*eA*eT*eA*eA) [compound 337305]
% Inhib (inhibition of human STAT 3 mRNA levels): 25%

337306 (antisense eG*e[5mC]*eA*e[5mC]*eA*d[5mC]*dT*dT*dT*dA*dA*dT*dT*dT*dT*eA*eA*eG*e[5mC]*eT) [compound 337306]
% Inhib (inhibition of human STAT 3 mRNA levels): 77%

337307 (antisense eT*e[5mC]*eA*eA*eT*dG*d[5mC]*dA*d[5mC]*dA*d[5mC]*dT*dT*dT*dA*eA*eT*eT*eT*eT) [compound 337307]
% Inhib (inhibition of human STAT 3 mRNA levels): 53%

337308 (antisense e[5mC]*e[5mC]*e[5mC]*eA*eG*dA*dA*dT*dG*dT*dT*dA*dA*dA*dT*eT*eT*e[5mC]*e[5mC]*eG) [compound 337308]
% Inhib (inhibition of human STAT 3 mRNA levels): 70%

337309 (antisense eA*eG*eA*eG*eG*d[5mC]*dT*dG*d[5mC]*d[5mC]*dG*dT*dT*dG*dT*eT*eG*eG*eA*eT) [compound 337309]
% Inhib (inhibition of human STAT 3 mRNA levels): 73%

337310 (antisense eA*eA*eG*eT*eG*dT*dT*dT*dG*dA*dA*dT*dT*d[5mC]*dT*eG*e[5mC]*eA*eG*eA) [compound 337310]
% Inhib (inhibition of human STAT 3 mRNA levels): 73%

337311 (antisense eT*e[5mC]*eT*e[5mC]*eT*dG*d[5mC]*dT*d[5mC]*d[5mC]*d[5mC]*dT*d[5mC]*dA*dG*eG*eG*eT*e[5mC]*eA) [compound 337311]
% Inhib (inhibition of human STAT 3 mRNA levels): 61%

337312 (antisense eA*eT*e[5mC]*eA*eG*dG*dT*dG*d[5mC]*dA*dG*d[5mC]*dT*d[5mC]*d[5mC]*eT*e[5mC]*eA*eG*eT) [compound 337312]
% Inhib (inhibition of human STAT 3 mRNA levels): 78%

337313 (antisense eA*eG*eG*eT*eG*dA*dT*d[5mC]*dA*dG*dG*dT*dG*d[5mC]*dA*eG*e[5mC]*eT*e[5mC]*e[5mC]) [compound 337313]
% Inhib (inhibition of human STAT 3 mRNA levels): 61%

337314 (antisense e[5mC]*eT*e[5mC]*eA*eA*dA*dG*dG*dT*dG*dA*dT*d[5mC]*dA*dG*eG*eT*eG*e[5mC]*eA) [compound 337314]
% Inhib (inhibition of human STAT 3 mRNA levels): 75%

337315 (antisense eG*eA*eG*eG*e[5mC]*d[5mC]*dT*dT*dG*dG*dT*dG*dA*dT*dA*e[5mC]*eA*e[5mC]*e[5mC]*eT) [compound 337315]
% Inhib (inhibition of human STAT 3 mRNA levels): 46%

337316 (antisense eT*e[5mC]*eA*eA*eT*d[5mC]*dT*dT*dG*dA*dG*dG*d[5mC]*d[5mC]*dT*eT*eG*eG*eT*eG) [compound 337316]
% Inhib (inhibition of human STAT 3 mRNA levels): 59%

337317 (antisense e[5mC]*eT*eA*eG*eG*dT*d[5mC]*dA*dA*dT*d[5mC]*dT*dT*dG*dA*eG*eG*e[5mC]*e[5mC]*eT) [compound 337317]
% Inhib (inhibition of human STAT 3 mRNA levels): 55%

337318 (antisense eG*eG*eT*e[5mC]*eT*d[5mC]*dT*dA*dG*dG*dT*d[5mC]*dA*dA*dT*e[5mC]*eT*eT*eG*eA) [compound 337318]
% Inhib (inhibition of human STAT 3 mRNA levels): 74%

337319 (antisense eA*eA*eG*eG*eA*dG*dT*dG*dG*dG*dT*d[5mC]*dT*d[5mC]*dT*eA*eG*eG*eT*e[5mC]) [compound 337319]
% Inhib (inhibition of human STAT 3 mRNA levels): 38%

337320 (antisense e[5mC]*eT*eG*eG*e[5mC]*dA*dA*dG*dG*dA*dG*dT*dG*dG*dG*eT*e[5mC]*eT*e[5mC]*eT) [compound 337320]
% Inhib (inhibition of human STAT 3 mRNA levels): 74%

337321 (antisense eA*e[5mC]*e[5mC]*eA*e[5mC]*dA*dA*d[5mC]*dT*dG*dG*d[5mC]*dA*dA*dG*eG*eA*eG*eT*eG) [compound 337321]
% Inhib (inhibition of human STAT 3 mRNA levels): 80%

337322 (antisense eT*e[5mC]*eT*eG*eA*d[5mC]*dA*dG*dA*dT*dG*dT*dT*dG*dG*eA*eG*eA*eT*e[5mC]) [compound 337322]
% Inhib (inhibition of human STAT 3 mRNA levels): 69%

337323 (antisense eT*eG*eG*e[5mC]*eA*dT*d[5mC]*dT*dG*dA*d[5mC]*dA*dG*dA*dT*eG*eT*eT*eG*eG) [compound 337323]
% Inhib (inhibition of human STAT 3 mRNA levels): 79%

337324 (antisense eG*e[5mC]*eA*eT*eT*dT*dG*dG*d[5mC]*dA*dT*d[5mC]*dT*dG*dA*e[5mC]*eA*eG*eA*eT) [compound 337324]
% Inhib (inhibition of human STAT 3 mRNA levels): 79%

337325 (antisense eT*eT*e[5mC]*eT*eT*dG*dG*dG*dA*dT*dT*dG*dT*dT*dG*eG*eT*e[5mC]*eA*eG) [compound 337325]
% Inhib (inhibition of human STAT 3 mRNA levels): 75%

337326 (antisense eG*eT*e[5mC]*eA*eG*d[5mC]*dT*dG*d[5mC]*dT*d[5mC]*dG*dA*dT*dG*e[5mC]*eT*e[5mC]*eA*eG) [compound 337326]
% Inhib (inhibition of human STAT 3 mRNA levels): 78%

337327 (antisense eT*e[5mC]*e[5mC]*e[5mC]*eA*dA*dG*dA*dG*dT*dT*dT*d[5mC]*dT*d[5mC]*eT*eG*e[5mC]*e[5mC]*eA) [compound 337327]
% Inhib (inhibition of human STAT 3 mRNA levels): 84%

337328 (antisense e[5mC]*eA*eT*eG*eT*dG*dA*dT*d[5mC]*dT*dG*dA*d[5mC]*dA*d[5mC]*e[5mC]*e[5mC]*eT*eG*eA) [compound 337328]
% Inhib (inhibition of human STAT 3 mRNA levels): 85%

337329 (antisense eT*eA*eG*e[5mC]*e[5mC]*d[5mC]*dA*dT*dG*dT*dG*dA*dT*d[5mC]*dT*eG*eA*e[5mC]*eA*e[5mC]) [compound 337329]
% Inhib (inhibition of human STAT 3 mRNA levels): 88%

337330 (antisense eG*e[5mC]*e[5mC]*eA*eT*dG*dT*dT*dT*dT*d[5mC]*dT*dT*dT*dG*e[5mC]*eA*eA*eA*eA) [compound 337330]
% Inhib (inhibition of human STAT 3 mRNA levels): 59%

337331 (antisense e[5mC]*e[5mC]*eT*eT*eG*d[5mC]*d[5mC]*dA*dG*d[5mC]*d[5mC]*dA*dT*dG*dT*eT*eT*eT*e[5mC]*eT) [compound 337331]
% Inhib (inhibition of human STAT 3 mRNA levels): 88%
